Consider 39 compounds from patent US8563715B2, “Pyrimidine derivative having cell protecting effect and uses thereof” (Zenyaku Kogyo Kabushikikaisha, priority 2008, dated 2013).

Molecules are shown by their SMILES.

The melting point is the temperature, or range, at which the solid turns liquid. Turning to `COc1ccccc1N1CCN(c2nc(N3CCOCC3)cc(N3CCOCC3)n2)CC1` [Compound 32, 2-[4-(2-methoxyphenyl)piperazin-1-yl]-4,6-dimorpholinopyrimidine], the melting point stood at 214 °C. To `c1ccc(Cc2c(N3CCOCC3)nc(N3CCN(c4ccccc4)CC3)nc2N2CCOCC2)cc1` [Compound 48, 5-benzyl-4,6-dimorpholino-2-(4-phenylpiperazin-1-yl)pyrimidine] belongs 141 to 144 °C; to `Cc1cccc(N2CCN(c3nc(N4CCOCC4)c(F)c(N4CCN(C)CC4)n3)CC2)c1C` [Compound 184, 5-fluoro-4-(4-methylpiperazin-1-yl)-6-morpholino-2-[4-(2,3-xylyl)piperazin-1-yl]pyrimidine], 67 to 68 °C. To `Fc1c(N2CCOCC2)nc(N2CC=C(c3ccccc3)CC2)nc1N1CCOCC1` [Compound 120, 5-fluoro-4,6-dimorpholino-2-[4-phenyl-1,2,5,6-tetrahydropyridin-1-yl]pyrimidine] belongs 132 to 135 °C; to `c1ccc(Cc2c(N3CCOCC3)nc(N3CCOCC3)nc2N2CCN(c3ccccc3)CC2)cc1` [Compound 49, 5-benzyl-2,4-dimorpholino-6-(4-phenylpiperazin-1-yl)pyrimidine], 162 to 165 °C. The figure for `CCOc1ccccc1N1CCN(c2nc(N3CCOCC3)cc(N3CCOCC3)n2)CC1` [Compound 27, 2-[4-(2-ethoxyphenyl)piperazin-1-yl]-4,6-dimorpholinopyrimidine] is 184 °C.

As for `CC(C)(C)OC(=O)N1CCN(c2nc(N3CCN(c4ccccc4F)CC3)nc(N3CCOCC3)c2F)CC1` [Compound 181, 4-(4-tert-butoxycarbonylpiperazin-1-yl)-5-fluoro-2-[4-(2-fluorophenyl)piperazin-1-yl]-6-morpholinopyrimidine], the melting point lay in the range of 137 to 138 °C. To `CC(=O)c1ccc(N2CCN(c3nc(N4CCOCC4)c(F)c(N4CCOCC4)n3)CC2)cc1` [Compound 100, 2-[4-(4-acetylphenyl)piperazin-1-yl]-5-fluoro-4,6-dimorpholinopyrimidine] belongs 195 to 198 °C; to `Fc1ccc(N2CCN(c3nc(N4CCOCC4)nc(N4CCOCC4)c3F)CC2)cc1` [Compound 97, 5-fluoro-4-[4-(4-fluorophenyl)piperazin-1-yl]-2,6-dimorpholinopyrimidine], 171 to 174 °C. The figure for `Fc1ccc(N2CCN(c3nc(N4CCOCC4)cc(N4CCOCC4)n3)CC2)cc1` [Compound 20, 2-[4-(4-fluorophenyl)piperazin-1-yl]-4,6-dimorpholinopyrimidine] is 196 to 199 °C. Turning to `CN(C)c1nc(N2CCOCC2)c(F)c(N2CCN(c3ccccc3F)CC2)n1` [Compound 112, 2-dimethylamino-5-fluoro-4-[4-(2-fluorophenyl)piperazin-1-yl]-6-morpholinopyrimidine], the melting point is 95 °C. `OC1(c2ccccc2)CCN(c2cc(N3CCOCC3)nc(N3CCOCC3)n2)CC1` [Compound 37, 4-(4-hydroxy-4-phenylpiperidin-1-yl)-2,6-dimorpholinopyrimidine] yielded a melting point of 189 to 192 °C. To `CC(=O)Nc1c(N2CCOCC2)nc(N2CCN(c3ccccc3)CC2)nc1N1CCOCC1` [Compound 77, 5-acetylamino-4,6-dimorpholino-2-(4-phenylpiperazin-1-yl)pyrimidine] belongs 229 to 230 °C. Turning to `Fc1ccc(N2CCN(c3cc(N4CCOCC4)nc(N4CCOCC4)n3)CC2)cc1` [Compound 21, 4-[4-(4-fluorophenyl)piperazin-1-yl]-2,6-dimorpholinopyrimidine], the melting point is 215 to 218 °C. `OC1(c2ccccc2)CCN(c2nc(N3CCOCC3)nc(N3CCOCC3)c2F)CC1` [Compound 117, 5-fluoro-4-(4-hydroxy-4-phenylpiperidin-1-yl)-2,6-dimorpholinopyrimidine] had a melting point of 128 to 131 °C. To `Cc1cccc(N2CCN(c3nc(N4CCN(Cc5ccc(NC(=O)OC(C)(C)C)cc5)CC4)nc(N4CCOCC4)c3F)CC2)c1C` [Compound 193, 2-[4-(4-tert-butoxycarbonylaminobenzyl)piperazin-1-yl]-5-fluoro-4-morpholino-6-[4-(2,3-xylyl)piperazin-1-yl]pyrimidine] belongs 104 to 105 °C; to `CC(=O)c1ccc(N2CCN(c3cc(N4CCOCC4)nc(N4CCOCC4)n3)CC2)cc1` [Compound 25, 4-[4-(4-acetylphenyl)piperazin-1-yl]-2,6-dimorpholinopyrimidine], 198 to 201 °C. The figure for `CC(=O)C1(c2ccccc2)CCN(c2nc(N3CCOCC3)c(F)c(N3CCOCC3)n2)CC1` [Compound 118, 2-(4-acetyl-4-phenylpiperidin-1-yl)-5-fluoro-4,6-dimorpholinopyrimidine] is 201 to 205 °C; for `CC(=O)C1(c2ccccc2)CCN(c2cc(N3CCOCC3)nc(N3CCOCC3)n2)CC1` [Compound 39, 4-(4-acetyl-4-phenylpiperidin-1-yl)-2,6-dimorpholinopyrimidine] it is 146 to 147 °C.

As for `c1ccc(-c2c(N3CCOCC3)nc(N3CCN(c4ccccc4)CC3)nc2N2CCOCC2)cc1` [Compound 46, 4,6-dimorpholino-5-phenyl-2-(4-phenylpiperazin-1-yl)pyrimidine], the melting point is 163 to 165 °C. To `c1c(N2CCOCC2)nc(N2CCN(C3CCCCC3)CC2)nc1N1CCOCC1` [Compound 42, 2-[4-(4-cyclohexyl)piperazin-1-yl]-4,6-dimorpholinopyrimidine] belongs 171 to 174 °C; to `CCCCN(CCCC)c1cc(N2CCOCC2)nc(N2CCN(c3ccccc3)CC2)n1` [Compound 55, 6-dibutylamino-4-morpholino-2-(4-phenylpiperazin-1-yl)pyrimidine], 84 to 85 °C. The figure for `Fc1ccccc1N1CCN(c2nc(N3CCOCC3)cc(N3CCOCC3)n2)CC1` [Compound 31, 2-[4-(2-fluorophenyl)piperazin-1-yl]-4,6-dimorpholinopyrimidine] is 148 °C. To `Cc1cccc(N2CCN(c3nc(N4CCN(C)CC4)nc(N4CCOCC4)c3F)CC2)c1C` [Compound 183, 5-fluoro-2-(4-methylpiperazin-1-yl)-4-morpholino-6-[4-(2,3-xylyl)piperazin-1-yl]pyrimidine] belongs 56 to 57 °C; to `Fc1c(N2CCOCC2)nc(N2CCOCC2)nc1N1CCN(C2CCCCC2)CC1` [Compound 124, 4-(4-cyclohexylpiperazin-1-yl)-5-fluoro-2,6-dimorpholinopyrimidine], 125 to 128 °C; to `Cc1ccccc1N1CCN(c2cc(N3CCOCC3)nc(N3CCN(c4ccccc4F)CC3)n2)CC1` [Compound 60, 2-[4-(2-fluorophenyl)piperazin-1-yl]-4-[4-(2-methylphenyl)piperazin-1-yl]-6-morpholinopyrimidine], 98 to 99 °C. Compound `Nc1c(N2CCOCC2)nc(/C=C/c2cccs2)nc1N1CCOCC1` [Compound 132, 5-amino-4,6-dimorpholino-2-[2-(2-thienyl)vinyl]pyrimidine] returned a melting point of 221 to 223 °C. Regarding `Fc1c(N2CCOCC2)nc(N2CCN(c3ncccn3)CC2)nc1N1CCOCC1` [Compound 92, 5-fluoro-4,6-dimorpholino-2-[4-(pyrimidin-2-yl)piperazin-1-yl]pyrimidine], the melting point lay within 163 to 165 °C.

Take `Fc1c(N2CCOCC2)nc(N2CCOCC2)nc1N1CCN(Cc2ccccc2)CC1` [Compound 90, 4-(4-benzylpiperazin-1-yl)-5-fluoro-2,6-dimorpholinopyrimidine]: the melting point lay within 108 to 111 °C. In turn, `Fc1c(N2CCOCC2)nc(N2CCN(c3ccc(Cl)cc3)CC2)nc1N1CCOCC1` [Compound 109, 2-[4-(4-chlorophenyl)piperazin-1-yl]-5-fluoro-4,6-dimorpholinopyrimidine] displayed a melting point of 215 °C.

Compound `CCNc1c(N2CCOCC2)nc(N2CCN(c3ccccc3)CC2)nc1N1CCOCC1` [Compound 80, 5-ethylamino-4,6-dimorpholino-2-(4-phenylpiperazin-1-yl)pyrimidine] gave a melting point of 100 to 104 °C. Take `COc1ccc(/C=C/c2nc(N3CCOCC3)c(NC(C)=O)c(N3CCOCC3)n2)cc1` [Compound 79, 5-acetylamino-2-[2-(4-methoxyphenyl)vinyl]-4,6-dimorpholinopyrimidine]: the melting point is 189 to 191 °C. The compound `Fc1ccccc1N1CCN(c2cc(N3CCOCC3)nc(N3CCN(c4ccccc4F)CC3)n2)CC1` [Compound 59, 2,4-bis[4-(2-fluorophenyl)piperazin-1-yl]-6-morpholinopyrimidine] came in with a melting point of 98 to 99 °C. In turn, `OC1(c2ccccc2)CCN(c2nc(N3CCOCC3)cc(N3CCOCC3)n2)CC1` [Compound 36, 2-(4-hydroxy-4-phenylpiperidin-1-yl)-4,6-dimorpholinopyrimidine] displayed a melting point of 157 to 159 °C. The compound `Cc1c(N2CCOCC2)nc(N2CCN(c3ccccc3)CC2)nc1N1CCOCC1` [Compound 44, 5-methyl-4,6-dimorpholino-2-(4-phenylpiperazin-1-yl)pyrimidine] returned a melting point of 99 to 102 °C. To `Fc1c(N2CCOCC2)nc(N2CCN(c3ccccc3Cl)CC2)nc1N1CCOCC1` [Compound 102, 2-[4-(2-chlorophenyl)piperazin-1-yl]-5-fluoro-4,6-dimorpholinopyrimidine] belongs 118 °C; to `Fc1ccccc1N1CCN(c2cc(N3CCOCC3)nc(N3CCN(c4ccccc4)CC3)n2)CC1` [Compound 58, 4-[4-(2-fluorophenyl)piperazin-1-yl]-6-morpholino-2-(4-phenylpiperazin-1-yl)pyrimidine], 90 to 91 °C; to `COc1ccccc1N1CCN(c2nc(N3CCOCC3)c(F)c(N3CCOCC3)n2)CC1` [Compound 108, 5-fluoro-2-[4-(2-methoxyphenyl)piperazin-1-yl]-4,6-dimorpholinopyrimidine], 171 °C.

For the compound `CC(=O)c1ccc(N2CCN(c3nc(N4CCOCC4)cc(N4CCOCC4)n3)CC2)cc1` [Compound 24, 2-[4-(4-acetylphenyl)piperazin-1-yl]-4,6-dimorpholinopyrimidine], the melting point was 162 to 166 °C.
